Data: patent publication US20200223889A1, “Bicyclic Compounds Capable of Binding to Melanocortin 4 Receptor” (Novo Nordisk A/S, priority 2017, published 2020)
Positions of bridges follow the written chain, without caps; N, C: chain ends. Non-standard residues stand in square brackets, D forms with d. Residues, ends and D or L forms follow the SMILES beside them. Phe(4-CN) = N#Cc1ccc(C[C@H](N)C(=O)O)cc1; 1Nal = N[C@@H](Cc1cccc2ccccc12)C(=O)O; Cit = NC(=O)NCCC[C@H](N)C(=O)O

Columns and labels:
[1] = target: T1, human MC4R (Homo sapiens, UniProt P32245); assay: 125NDP-α-MSH competitive binding to membranes of BHK cells expressing human MC4 receptor (filtration assay); settings: human MC4R, BHK cell membranes, 125NDP-α-MSH radioligand; read-out: MC4R binding Ki
T1 construct: expressed in transfected cells
T1 sequence (P32245 whole entry): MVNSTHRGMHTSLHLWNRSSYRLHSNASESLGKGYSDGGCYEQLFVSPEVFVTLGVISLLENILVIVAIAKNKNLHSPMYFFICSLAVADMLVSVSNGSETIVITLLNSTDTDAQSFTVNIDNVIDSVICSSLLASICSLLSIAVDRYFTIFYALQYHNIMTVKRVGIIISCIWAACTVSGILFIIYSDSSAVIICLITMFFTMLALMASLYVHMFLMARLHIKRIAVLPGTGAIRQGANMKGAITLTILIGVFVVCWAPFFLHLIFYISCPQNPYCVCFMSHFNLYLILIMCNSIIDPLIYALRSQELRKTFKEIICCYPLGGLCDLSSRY
Procedure: In Vitro ^125NDP-α-MSH Binding to Recombinant BHK Cells Expressing Human MC4 Receptor (Filtration Assay)
In order to assess the binding affinity of the selected compounds for the human MC4R competitive binding assays was performed with radiolabeled NDP-alpha MSH (^125NDP-α-MSH).
The assay was performed in 96-well filterplates (Unifilter) using BHK cells stably expressing the human MC4 receptor.
The BHK cell membranes were prepared from frozen or fresh cells that were homogenized in 20 mM HEPES pH 7.1, 5 mM MgCl2, 1 mg/ml bacitracin (buffer 1) and centrifuged at 15000 rpm at 4° C., 10 min in a Sorvall RC 5B plus, SS-34 rotor. The supernatant was discarded, and the pellets were re-suspended in buffer 1, homogenized and centrifuged two more times. The final pellets were re-suspended in buffer 1 and the protein concentration was measured and adjusted with buffer 1 to 5 mg/ml and the membrane preparation was kept at −80° C. until assay. The assay was run on a dilution of this cell membrane suspension without any further preparation. The suspension was diluted to give maximally 10% specific binding, i.e. to approx. 50-100 fold dilution, optimized after each membrane preparation. The assay was performed in a total volume of 200 μl: 50 μl of cell suspension, 50 μl of ^125NDP-α-MSH (apx. […] in final concentration), 50 μl of test compound and 50 μl binding buffer were mixed and incubated for 2 h at 25° C. (binding buffer: 25 mM HEPES, pH 7.0, 1 mM CaCl2), 1 mM MgSO4, 1 mM EGTA, 0.005% Tween™ 20 and 0.1% HSA or, alternatively, 0.1% ovalbumin (Sigma; catalogue No. A-5503)). Test compounds were dissolved in 100% DMSO and diluted in binding buffer in a dose range from 1 μM to 0.001 nM. Radiolabelled ligand and membranes were diluted in binding buffer. The incubation was stopped by dilution with 8×100 μl ice-cold 0.9% NaCl. The radioactivity retained on the filters was counted using a Packard Topcounter. The data were analysed by non-linear regression analysis of binding curves, using the Windows™ program GraphPad™ Prism (GraphPad Software, USA).

[2] = target: T1, human MC4R; assay: Functional cAMP assay (CisBio HTRF) in BHK cells expressing human MC4R; type: cell-based; settings: for EC50: BHK cells expressing human MC4R, '>' = highest dose used with no response, read-out: MC4R cAMP EC50; for MC1R/MC4R cAMP EC50 ratio: MC1R cAMP EC50 divided by MC4R cAMP EC50
How it was run: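 Stably transfected BHK cells expressing human MC1R or MC4R; cAMP quantified by HTRF (cAMP-d2/cryptate) after 30 min compound stimulation at 25 °C in DMEM-based buffer with 1 mM IBMX. Compounds were prepared as 10-fold serial dilutions starting at 2 μM (working solution, 2× final). Readout after 1 h at 25 °C; non-linear regression.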

In the case of `C[C@@H]1NC(=O)[C@@H]2CSSC[C@H](NC(=O)[C@H](Cc3c[nH]c4ccccc34)NC(=O)[C@H](CCCNC(N)=O)NC(=O)[C@@H](Cc3ccccc3)NC(=O)[C@H](Cc3c[nH]cn3)NC1=O)C(=O)N[C@@H](C)C(=O)N[C@@H](CCCCN)C(=O)N[C@@H](CCCCN)C(=O)N[C@@H](CCCCN)C(=O)N[C@@H](Cc1c[nH]c3ccccc13)C(=O)N2` [Chem. 48, c[c[Cys-Ala-His-D-Phe-Cit-Trp-Cys]- Ala-Lys-Lys-Lys-Trp]] (cyclo(AH[dF][Cit]WCAKKKWC); disulfide 6-12), the Ki [1] is reported as 0.15 nM, the EC50 [2] is reported as 0.06 nM and the “MC1R/MC4R cAMP EC50 ratio” value [2] is reported as 152.

With `N=C(N)NCCC[C@@H]1NC(=O)[C@@H]2CSSC[C@H](NC(=O)[C@H](Cc3c[nH]c4ccccc34)NC(=O)[C@H](CCCNC(N)=O)NC(=O)[C@@H](Cc3ccccc3)NC(=O)[C@H](Cc3c[nH]cn3)NC1=O)C(=O)N[C@@H](CCCNC(=N)N)C(=O)N[C@@H](Cc1c[nH]cn1)C(=O)N[C@H](Cc1ccccc1)C(=O)N[C@@H](CCCNC(N)=O)C(=O)N[C@@H](Cc1c[nH]c3ccccc13)C(=O)N2` [Chem. 54, c[c[Cys-Arg-His-D-Phe-Cit-Trp-Cys]- Arg-His-D-Phe-Cit-Trp]] (cyclo(CRH[dF][Cit]WCRH[dF][Cit]W); disulfide 1-7) the Ki [1] was 0.21 nM, the EC50 [2] was 0.04 nM and the “MC1R/MC4R cAMP EC50 ratio” value [2] was 7.

In the case of `C[C@@H]1NC(=O)[C@@H]2CSSC[C@H](NC(=O)[C@H](Cc3c[nH]c4ccccc34)NC(=O)[C@H](CCC(N)=O)NC(=O)[C@@H](Cc3ccccc3)NC(=O)[C@H](Cc3c[nH]cn3)NC1=O)C(=O)N[C@@H](C)C(=O)N[C@@H](CCCCN)C(=O)N[C@H](CCCCN)C(=O)N[C@@H](CCCCN)C(=O)N[C@@H](Cc1c[nH]c3ccccc13)C(=O)N2` [Chem. 57, c[c[Cys-Ala-His-D-Phe-Gln-Trp-Cys]- Ala-Lys-D-Lys-Lys-Trp]] (cyclo(AH[dF]QWCAK[dK]KWC); disulfide 6-12), the Ki [1] is reported as 0.21 nM, the EC50 [2] is reported as 0.19 nM and the “MC1R/MC4R cAMP EC50 ratio” value [2] is reported as 55.

In the case of `CC(=O)NCCCC[C@@H]1NC(=O)[C@@H](Cc2ccccc2)NC(=O)[C@H](Cc2c[nH]cn2)NC(=O)[C@H](C)NC(=O)[C@@H]2CSSC[C@H](NC(=O)[C@H](Cc3c[nH]c4ccccc34)NC1=O)C(=O)N[C@@H](C)C(=O)N[C@@H](CCCCN)C(=O)N[C@H](CCCCN)C(=O)N[C@@H](CCCCN)C(=O)N[C@@H](Cc1c[nH]c3ccccc13)C(=O)N2` [Chem. 58, c[c[Cys-Ala-His-D-Phe-AcLys-Trp- Cys]-Ala-Lys-D-Lys-Lys-Trp]] (cyclo(AH[dF]K(Ac)WCAK[dK]KWC); disulfide 6-12), the Ki [1] is reported as 0.09 nM, the EC50 [2] is reported as 0.11 nM and the “MC1R/MC4R cAMP EC50 ratio” value [2] is reported as 36.

For `C[C@@H]1NC(=O)[C@@H]2CSSC[C@H](NC(=O)[C@H](Cc3c[nH]c4ccccc34)NC(=O)[C@H](Cc3c[nH]cn3)NC(=O)[C@@H](Cc3ccccc3)NC(=O)[C@H](Cc3c[nH]cn3)NC1=O)C(=O)N[C@@H](C)C(=O)N[C@@H](CCCCN)C(=O)N[C@@H](CCCCN)C(=O)N[C@@H](CCCCN)C(=O)N[C@@H](Cc1c[nH]c3ccccc13)C(=O)N2` [Chem. 60, c[c[Cys-Ala-His-D-Phe-His-Trp-Cys]- Ala-Lys-Lys-Lys-Trp]] (cyclo(AH[dF]HWCAKKKWC); disulfide 6-12), the Ki [1] was 0.1 nM, the EC50 [2] was 0.17 nM and the “MC1R/MC4R cAMP EC50 ratio” value [2] was 313.

In the case of `C[C@@H]1NC(=O)[C@@H]2CSSC(C)(C)[C@H](NC(=O)[C@H](Cc3c[nH]c4ccccc34)NC(=O)[C@H](CCCNC(=N)N)NC(=O)[C@@H](Cc3ccccc3)NC(=O)[C@H](Cc3c[nH]cn3)NC1=O)C(=O)N[C@@H](C)C(=O)N[C@@H](Cc1c[nH]cn1)C(=O)N[C@H](Cc1ccccc1)C(=O)N[C@@H](CCCNC(=N)N)C(=O)N[C@@H](Cc1c[nH]c3ccccc13)C(=O)N2` [Chem. 63, c[c[Pen-Ala-His-D-Phe-Arg-Trp-Cys]- Ala-His-D-Phe-Arg-Trp]], the Ki [1] is reported as 0.08 nM, the EC50 [2] is reported as 0.02 nM and the “MC1R/MC4R cAMP EC50 ratio” value [2] is reported as 42.

With `C[C@@H]1NC(=O)[C@@H]2CSSC[C@H](NC(=O)[C@H](Cc3cccc4ccccc34)NC(=O)[C@H](CCCNC(=N)N)NC(=O)[C@@H](Cc3ccccc3)NC(=O)[C@H](Cc3c[nH]cn3)NC1=O)C(=O)N[C@@H](C)C(=O)N[C@@H](CCCCN)C(=O)N[C@@H](CCCCN)C(=O)N[C@@H](CCCCN)C(=O)N[C@@H](Cc1c[nH]c3ccccc13)C(=O)N2` [Chem. 64, c[c[Cys-Ala-His-D-Phe-Arg-1-Nal- Cys]-Ala-Lys-Lys-Lys-Trp]] (cyclo([1Nal]CAKKKWCAH[dF]R); disulfide 2-8) the Ki [1] was 0.09 nM, the EC50 [2] was 0.03 nM and the “MC1R/MC4R cAMP EC50 ratio” value [2] was 141.

With `C[C@@H]1NC(=O)[C@@H]2CSSC[C@H](NC(=O)[C@H](Cc3ccc(C#N)cc3)NC(=O)[C@H](CCCNC(=N)N)NC(=O)[C@@H](Cc3ccccc3)NC(=O)[C@H](Cc3c[nH]cn3)NC1=O)C(=O)N[C@@H](C)C(=O)N[C@@H](CCCCN)C(=O)N[C@@H](CCCCN)C(=O)N[C@@H](CCCCN)C(=O)N[C@@H](Cc1c[nH]c3ccccc13)C(=O)N2` [Chem. 65, c[c[Cys-Ala-His-D-Phe-Arg-4-CN- Phe-Cys]-Ala-Lys-Lys-Lys-Trp]] (cyclo(AH[dF]R[Phe(4-CN)]CAKKKWC); disulfide 6-12) the Ki [1] was 0.47 nM, the EC50 [2] was 0.42 nM and the “MC1R/MC4R cAMP EC50 ratio” value [2] was 26.

With `C[C@@H]1NC(=O)[C@@H]2CSSC[C@H](NC(=O)[C@H](CCCNC(=N)N)NC(=O)[C@H](CCCCN)NC(=O)[C@H](CCCCN)NC(=O)[C@H](CCCCN)NC1=O)C(=O)N1CCC[C@H]1C(=O)N[C@@H](Cc1c[nH]cn1)C(=O)N[C@H](Cc1ccccc1)C(=O)N[C@@H](Cc1c[nH]cn1)C(=O)N[C@@H](Cc1c[nH]c3ccccc13)C(=O)N2` [Chem. 71, c[c[Cys-Pro-His-D-Phe-His-Trp-Cys]- Ala-Lys-Lys-Lys-Arg]] (cyclo(AKKKRCPH[dF]HWC); disulfide 6-12) the Ki [1] was 0.05 nM, the EC50 [2] was 0.08 nM and the “MC1R/MC4R cAMP EC50 ratio” value [2] was 415.

In the case of `C[C@@H]1NC(=O)[C@@H]2CSSC[C@H](NC(=O)[C@H](CCCNC(=N)N)NC(=O)[C@H](CCCCN)NC(=O)[C@H](CCCCN)NC(=O)[C@H](CCCCN)NC1=O)C(=O)N1CCC[C@H]1C(=O)N[C@@H](Cc1c[nH]cn1)C(=O)N[C@H](Cc1ccccc1)C(=O)N[C@@H](CCCNC(N)=O)C(=O)N[C@@H](Cc1c[nH]c3ccccc13)C(=O)N2` [Chem. 72, c[c[Cys-Pro-His-D-Phe-Cit-Trp-Cys]- Ala-Lys-Lys-Lys-Arg]] (cyclo(AKKKRCPH[dF][Cit]WC); disulfide 6-12), the Ki [1] is reported as 0.03 nM, the EC50 [2] is reported as 0.03 nM and the “MC1R/MC4R cAMP EC50 ratio” value [2] is reported as 195.

`NCCCC[C@@H]1NC(=O)[C@H](CCCCN)NC(=O)[C@@H]2CSSC[C@H](NC(=O)[C@H](Cc3c[nH]c4ccccc34)NC(=O)[C@H](CCCCN)NC(=O)[C@H](CCCCN)NC1=O)C(=O)N1CCC[C@H]1C(=O)N[C@@H](Cc1c[nH]cn1)C(=O)N[C@H](Cc1ccccc1)C(=O)N[C@@H](Cc1c[nH]cn1)C(=O)N[C@@H](Cc1c[nH]c3ccccc13)C(=O)N2` [Chem. 75, c[c[Cys-Pro-His-D-Phe-His-Trp-Cys]- Lys-Lys-Lys-Lys-Trp]] (cyclo(CKKKKWCPH[dF]HW); disulfide 1-7) was tested, and the Ki [1] was 0.11 nM, the EC50 [2] was 0.44 nM and the “MC1R/MC4R cAMP EC50 ratio” value [2] was 155.

In the case of `C[C@@H]1NC(=O)[C@@H]2CSSC[C@H](NC(=O)[C@H](Cc3c[nH]c4ccccc34)NC(=O)[C@H](CCCCN)NC(=O)[C@H](CCCCN)NC(=O)[C@H](CCCCN)NC1=O)C(=O)N[C@@H](CCCCN)C(=O)N[C@@H](Cc1c[nH]cn1)C(=O)N[C@H](Cc1ccccc1)C(=O)N[C@@H](Cc1c[nH]cn1)C(=O)N[C@@H](Cc1c[nH]c3ccccc13)C(=O)N2` [Chem. 76, c[c[Cys-Lys-His-D-Phe-His-Trp-Cys]- Ala-Lys-Lys-Lys-Trp]] (cyclo(AKKKWCKH[dF]HWC); disulfide 6-12), the Ki [1] is reported as 0.09 nM, the EC50 [2] is reported as 0.16 nM and the “MC1R/MC4R cAMP EC50 ratio” value [2] is reported as 136.

With `NCCCC[C@@H]1NC(=O)[C@H](CCCCN)NC(=O)[C@H](CCCCN)NC(=O)[C@@H]2CSSC[C@H](NC(=O)[C@H](Cc3c[nH]c4ccccc34)NC(=O)[C@H](CCCCN)NC1=O)C(=O)N[C@@H](CCCCN)C(=O)N[C@@H](Cc1c[nH]cn1)C(=O)N[C@H](Cc1ccccc1)C(=O)N[C@@H](Cc1c[nH]cn1)C(=O)N[C@@H](Cc1c[nH]c3ccccc13)C(=O)N2` [Chem. 77, c[c[Cys-Lys-His-D-Phe-His-Trp-Cys]- Lys-Lys-Lys-Lys-Trp]] (cyclo(CKH[dF]HWCKKKKW); disulfide 1-7) the Ki [1] was 0.72 nM and the “MC1R/MC4R cAMP EC50 ratio” value [2] was 108.
